In article PMC5218480 (PLoS ONE, 2017):

Tested on: MV-4-11 cells
Assay: Gene expression microarray analysis (Affymetrix PrimeView) and GSEA
Assay type: cell-based, human
Parameters: RFU PODN (11730768_x_at) / Fold change /veh PODN (11730768_x_at) / RFU LINC00158 (11744669_a_at) / Fold change /veh LINC00158 (11744669_a_at) / RFU DUSP10 (11751237_a_at) / Fold change /veh DUSP10 (11751237_a_at) / RFU ID3 (11757404_x_at) / Fold change /veh ID3 (11757404_x_at) / RFU PLEKHG5 (11737974_s_at) / Fold change /veh PLEKHG5 (11737974_s_at) / RFU LRRC4B (11730491_at) / Fold change /veh LRRC4B (11730491_at) / RFU GIMAP4 (11747438_a_at) / Fold change /veh GIMAP4 (11747438_a_at) / RFU KRT8 (11758183_x_at) / Fold change /veh KRT8 (11758183_x_at) / RFU CNN1 (11734310_a_at) / Fold change /veh CNN1 (11734310_a_at) / RFU VPS37D (11726825_at) / Fold change /veh VPS37D (11726825_at) / RFU C10orf10 (11716522_x_at) / Fold change /veh C10orf10 (11716522_x_at) / RFU KIR2DL2 /// KIR2DL4 /// KIR2DL5A /// KIR2DL5B /// KIR2DS1 /// KIR2DS2 /// KIR2DS3 /// KIR2DS4 /// KIR3DL3 /// KIR3DL3 /// KIR3DS1 (11738374_at) / Fold change /veh KIR2DL2 /// KIR2DL4 /// KIR2DL5A /// KIR2DL5B /// KIR2DS1 /// KIR2DS2 /// KIR2DS3 /// KIR2DS4 /// KIR3DL3 /// KIR3DL3 /// KIR3DS1 (11738374_at) / RFU C1QL1 (11718748_at) / Fold change /veh C1QL1 (11718748_at) / RFU TMPRSS4 (11747572_a_at) / Fold change /veh TMPRSS4 (11747572_a_at) / RFU HAMP (11756126_x_at) / Fold change /veh HAMP (11756126_x_at) / RFU RNFT2 (11725882_a_at) / Fold change /veh RNFT2 (11725882_a_at) / RFU NR4A2 (11747474_a_at) / Fold change /veh NR4A2 (11747474_a_at) / RFU ABCC12 (11746883_a_at) / Fold change /veh ABCC12 (11746883_a_at) / RFU TMEM136 (11760407_x_at) / Fold change /veh TMEM136 (11760407_x_at) / RFU CLDN22 /// WWC2 (11732394_at) / Fold change /veh CLDN22 /// WWC2 (11732394_at) / RFU HLA-DPB1 (11760878_x_at) / Fold change /veh HLA-DPB1 (11760878_x_at) / RFU SPINT1 (11716480_a_at) / Fold change /veh SPINT1 (11716480_a_at) / RFU GAP43 (11754022_s_at) / Fold change /veh GAP43 (11754022_s_at) / RFU A4GNT (11735810_at) / Fold change /veh A4GNT (11735810_at) / RFU PRB3 (11715151_x_at) / Fold change /veh PRB3 (11715151_x_at) / RFU TUBB4B (11761932_at) / Fold change /veh TUBB4B (11761932_at) / RFU CAPN14 (11732068_a_at) / Fold change /veh CAPN14 (11732068_a_at) / RFU TMCC2 (11721928_a_at) / Fold change /veh TMCC2 (11721928_a_at) / RFU IRGQ (11745062_a_at) / Fold change /veh IRGQ (11745062_a_at) / RFU FAM174B (11720279_a_at) / Fold change /veh FAM174B (11720279_a_at) / RFU TMPRSS4 (11748680_a_at) / Fold change /veh TMPRSS4 (11748680_a_at) / RFU FAM212B (11763350_a_at) / Fold change /veh FAM212B (11763350_a_at) / RFU PLEKHG5 (11743358_a_at) / Fold change /veh PLEKHG5 (11743358_a_at) / RFU ZSCAN30 (11745921_a_at) / Fold change /veh ZSCAN30 (11745921_a_at) / RFU CMKLR1 (11741424_a_at) / Fold change /veh CMKLR1 (11741424_a_at) / RFU LOC101060620 /// MAPK8IP1 (11723275_at) / Fold change /veh LOC101060620 /// MAPK8IP1 (11723275_at) / RFU SPTSSB (11747773_x_at) / Fold change /veh SPTSSB (11747773_x_at) / RFU PRSS12 (11739890_at) / Fold change /veh PRSS12 (11739890_at) / RFU BIN1 (11741810_x_at) / Fold change /veh BIN1 (11741810_x_at) / RFU WNT11 (11732464_a_at) / Fold change /veh WNT11 (11732464_a_at) / RFU C10orf10 (11716521_a_at) / Fold change /veh C10orf10 (11716521_a_at) / RFU C5orf56 (11738089_at) / Fold change /veh C5orf56 (11738089_at) / RFU CYB561 (11721691_x_at) / Fold change /veh CYB561 (11721691_x_at) / RFU ANKRD19P (11752326_a_at) / Fold change /veh ANKRD19P (11752326_a_at) / RFU OR2T12 /// OR2T33 /// OR2T8 (11738714_s_at) / Fold change /veh OR2T12 /// OR2T33 /// OR2T8 (11738714_s_at) / RFU VCAN (11748164_a_at) / Fold change /veh VCAN (11748164_a_at) / RFU JSRP1 (11732532_at) / Fold change /veh JSRP1 (11732532_at) / RFU KRTAP10-11 (11738290_x_at) / Fold change /veh KRTAP10-11 (11738290_x_at) / RFU MYO3A (11730013_a_at) / Fold change /veh MYO3A (11730013_a_at) / RFU EBF3 (11725865_a_at) / Fold change /veh EBF3 (11725865_a_at) / RFU CAMK2N1 (11719241_x_at) / Fold change /veh CAMK2N1 (11719241_x_at) / RFU C5orf56 (11738088_a_at) / Fold change /veh C5orf56 (11738088_a_at) / RFU OLFML3 (11715873_a_at) / Fold change /veh OLFML3 (11715873_a_at) / RFU LOC100653217 /// NTM (11731650_a_at) / Fold change /veh LOC100653217 /// NTM (11731650_a_at) / RFU MAPK11 (11762145_a_at) / Fold change /veh MAPK11 (11762145_a_at) / RFU FIZ1 (11724087_x_at) / Fold change /veh FIZ1 (11724087_x_at) / RFU OASL (11726364_x_at) / Fold change /veh OASL (11726364_x_at) / RFU SOX15 (11748057_x_at) / Fold change /veh SOX15 (11748057_x_at) / RFU CD79A (11719716_a_at) / Fold change /veh CD79A (11719716_a_at) / RFU HIST1H1D (11736915_at) / Fold change /veh HIST1H1D (11736915_at) / RFU CASKIN2 (11723855_a_at) / Fold change /veh CASKIN2 (11723855_a_at) / RFU LOC730098 (11760151_x_at) / Fold change /veh LOC730098 (11760151_x_at) / RFU OR4N2 (11742367_at) / Fold change /veh OR4N2 (11742367_at) / RFU PRRT2 (11749266_a_at) / Fold change /veh PRRT2 (11749266_a_at) / RFU SNX32 (11753110_a_at) / Fold change /veh SNX32 (11753110_a_at) / RFU CDHR5 (11726645_a_at) / Fold change /veh CDHR5 (11726645_a_at) / RFU RCAN1 (11760418_a_at) / Fold change /veh RCAN1 (11760418_a_at) / RFU FAM167A (11723789_a_at) / Fold change /veh FAM167A (11723789_a_at) / RFU FAM26E (11764081_at) / Fold change /veh FAM26E (11764081_at) / RFU ISYNA1 (11749810_s_at) / Fold change /veh ISYNA1 (11749810_s_at) / RFU ACY1 (11761880_at) / Fold change /veh ACY1 (11761880_at) / RFU 11764098_at / Fold change /veh 11764098_at / RFU SAMD14 (11745864_x_at) / Fold change /veh SAMD14 (11745864_x_at) / RFU NPB (11741838_a_at) / Fold change /veh NPB (11741838_a_at) / RFU TMPRSS6 (11731388_a_at) / Fold change /veh TMPRSS6 (11731388_a_at) / RFU KRTAP10-2 (11738614_at) / Fold change /veh KRTAP10-2 (11738614_at) / RFU ARHGAP8 /// PRR5-ARHGAP8 (11727945_x_at) / Fold change /veh ARHGAP8 /// PRR5-ARHGAP8 (11727945_x_at) / RFU KRTAP5-7 /// NADSYN1 (11734609_at) / Fold change /veh KRTAP5-7 /// NADSYN1 (11734609_at) / RFU RASL12 (11751679_a_at) / Fold change /veh RASL12 (11751679_a_at) / RFU CDKN2B (11736163_a_at) / Fold change /veh CDKN2B (11736163_a_at) / RFU PRF1 (11729649_at) / Fold change /veh PRF1 (11729649_at) / RFU, ZNF638 /// ZNF638-IT1 / Fold change vs veh, ZNF638 /// ZNF638-IT1 / RFU, PANK3 / Fold change vs veh, PANK3 / RFU, SH3YL1 / Fold change vs veh, SH3YL1 / RFU, ZEB2 / Fold change vs veh, ZEB2 / RFU, NRIP1 / Fold change vs veh, NRIP1 / RFU, PTTG1IP / Fold change vs veh, PTTG1IP / RFU, CAPN2 / Fold change vs veh, CAPN2 / RFU, MED14 / Fold change vs veh, MED14 / RFU, SNORA58 / Fold change vs veh, SNORA58 / RFU, C1orf63 / Fold change vs veh, C1orf63 / RFU, LRRFIP1 / Fold change vs veh, LRRFIP1 / RFU, NDUFAF7 / Fold change vs veh, NDUFAF7 / RFU, SLC12A2 / Fold change vs veh, SLC12A2 / RFU, IBTK / Fold change vs veh, IBTK / RFU, ESF1 / Fold change vs veh, ESF1 / Fold change vs veh, TMEM50B / RFU, TAOK1 / Fold change vs veh, TAOK1 / RFU, ACBD3 / Fold change vs veh, ACBD3 / RFU, TMA16 / Fold change vs veh, TMA16 / RFU, RWDD3 / Fold change vs veh, RWDD3 / RFU, BCAT1 / Fold change vs veh, BCAT1 / RFU, EDEM3 / Fold change vs veh, EDEM3 / RFU, TMEM33 / Fold change vs veh, TMEM33 / RFU, WDR75 / Fold change vs veh, WDR75 / RFU, AHCTF1 / Fold change vs veh, AHCTF1 / RFU, TFRC / Fold change vs veh, TFRC / RFU, ZDHHC17 / Fold change vs veh, ZDHHC17 / RFU, NOM1 / Fold change vs veh, NOM1 / RFU, ARL8B / Fold change vs veh, ARL8B / RFU, ZBTB11 / Fold change vs veh, ZBTB11 / RFU, TAMM41 / Fold change vs veh, TAMM41 / RFU, KIAA1704 /// LOC100996395 / Fold change vs veh, KIAA1704 /// LOC100996395 / RFU, ING1 / Fold change vs veh, ING1 / RFU, TRMT61B / Fold change vs veh, TRMT61B / RFU, FUBP3 / Fold change vs veh, FUBP3 / RFU, TP53 / Fold change vs veh, TP53 / RFU, TNKS2 / Fold change vs veh, TNKS2 / RFU, ZFP14 / Fold change vs veh, ZFP14 / RFU, ACTR2 / Fold change vs veh, ACTR2 / RFU, PPP3R1 / Fold change vs veh, PPP3R1 / RFU, PIK3R1 / Fold change vs veh, PIK3R1 / RFU, HNRNPA1 / Fold change vs veh, HNRNPA1 / RFU, RNF170 / Fold change vs veh, RNF170 / RFU, ZNF28 / Fold change vs veh, ZNF28 / RFU, RNGTT / Fold change vs veh, RNGTT / RFU, OGT / Fold change vs veh, OGT / RFU, BRD1 / Fold change vs veh, BRD1 / RFU, MARS / Fold change vs veh, MARS / RFU, ZNF655 / Fold change vs veh, ZNF655 / RFU, FAHD1 / Fold change vs veh, FAHD1 / RFU, BDP1 / Fold change vs veh, BDP1 / RFU, LRRCC1 / Fold change vs veh, LRRCC1 / RFU, ARID1A / Fold change vs veh, ARID1A / RFU, ZNF146 / Fold change vs veh, ZNF146 / RFU, ZNF330 / Fold change vs veh, ZNF330 / RFU, GPN3 / Fold change vs veh, GPN3 / RFU, C9orf123 / Fold change vs veh, C9orf123 / RFU, N4BP2L2 / Fold change vs veh, N4BP2L2 / RFU, ARFIP1 / Fold change vs veh, ARFIP1 / RFU, FAM179B / Fold change vs veh, FAM179B / RFU, BCL10 / Fold change vs veh, BCL10 / RFU, UHRF1BP1L / Fold change vs veh, UHRF1BP1L / RFU, BET1 / Fold change vs veh, BET1 / RFU, CNOT2 / Fold change vs veh, CNOT2 / RFU, ZNF268 / Fold change vs veh, ZNF268 / Fold change vs veh, ZNF507 / RFU, DGCR2 / Fold change vs veh, DGCR2 / RFU, WDSUB1 / Fold change vs veh, WDSUB1 / Fold change vs veh, HSP90B1 /// MIR3652 / RFU, ADSS / Fold change vs veh, ADSS / RFU, GK / Fold change vs veh, GK / RFU, ZNF148 / Fold change vs veh, ZNF148 / RFU, TAF9 / Fold change vs veh, TAF9 / RFU, SLC1A5 / Fold change vs veh, SLC1A5 / RFU, SLMO2 / Fold change vs veh, SLMO2 / RFU, ABCC4 / Fold change vs veh, ABCC4 / RFU, LOC101060439 /// RAP1B / Fold change vs veh, LOC101060439 /// RAP1B / RFU, RFX7 / Fold change vs veh, RFX7 / RFU, GTPBP10 / Fold change vs veh, GTPBP10 / RFU, CNEP1R1 / Fold change vs veh, CNEP1R1 / RFU, BIVM-ERCC5 /// ERCC5 / Fold change vs veh, BIVM-ERCC5 /// ERCC5 / RFU, ILF3 / Fold change vs veh, ILF3 / RFU 11762660_at / Fold change /veh 11762660_at / RFU VCAN (11757783_s_at) / Fold change /veh VCAN (11757783_s_at) / RFU DDX43 (11728927_at) / Fold change /veh DDX43 (11728927_at) / RFU KRT8 (11758188_x_at) / Fold change /veh KRT8 (11758188_x_at) / RFU NKD1 (11759106_at) / Fold change /veh NKD1 (11759106_at) / RFU SRD5A1 (11742802_a_at) / Fold change /veh SRD5A1 (11742802_a_at) / RFU TPSAB1 /// TPSB2 (11721975_s_at) / Fold change /veh TPSAB1 /// TPSB2 (11721975_s_at) / RFU GSTM3 (11746129_a_at) / Fold change /veh GSTM3 (11746129_a_at) / RFU IL23R (11737362_x_at) / Fold change /veh IL23R (11737362_x_at) / RFU TMEM51 (11727254_a_at) / Fold change /veh TMEM51 (11727254_a_at) / RFU PIWIL2 (11732686_x_at) / Fold change /veh PIWIL2 (11732686_x_at) / RFU ORM1 (11744905_x_at) / Fold change /veh ORM1 (11744905_x_at) / RFU CCDC152 (11743942_at) / Fold change /veh CCDC152 (11743942_at) / RFU ECM1 (11717891_a_at) / Fold change /veh ECM1 (11717891_a_at) / RFU IL23R (11748794_a_at) / Fold change /veh IL23R (11748794_a_at) / RFU TNFAIP8L3 (11732012_x_at) / Fold change /veh TNFAIP8L3 (11732012_x_at) / RFU MBOAT4 (11741988_at) / Fold change /veh MBOAT4 (11741988_at) / RFU 11764193_at / Fold change /veh 11764193_at / RFU TMEM53 (11763286_at) / Fold change /veh TMEM53 (11763286_at) / RFU MAGEB2 (11727129_at) / Fold change /veh MAGEB2 (11727129_at) / RFU TMEM200A (11744735_a_at) / Fold change /veh TMEM200A (11744735_a_at) / RFU CCDC152 (11751479_a_at) / Fold change /veh CCDC152 (11751479_a_at) / RFU FAM211A (11726209_a_at) / Fold change /veh FAM211A (11726209_a_at) / RFU RGS16 (11746705_a_at) / Fold change /veh RGS16 (11746705_a_at) / RFU VCAN (11755009_s_at) / Fold change /veh VCAN (11755009_s_at) / RFU RHOB (11743442_s_at) / Fold change /veh RHOB (11743442_s_at) / RFU RGS16 (11720943_a_at) / Fold change /veh RGS16 (11720943_a_at) / RFU RGS16 (11720944_at) / Fold change /veh RGS16 (11720944_at) / RFU, VPS4B / Fold change vs veh, VPS4B / RFU, CREB1 / Fold change vs veh, CREB1 / RFU, DNAJC13 / Fold change vs veh, DNAJC13 / RFU, GNAQ / Fold change vs veh, GNAQ / RFU, CDK5R1 / Fold change vs veh, CDK5R1 / RFU, ZRANB3 / Fold change vs veh, ZRANB3 / RFU, CUL4A / Fold change vs veh, CUL4A / RFU, CCNY / Fold change vs veh, CCNY / RFU, UFL1 / Fold change vs veh, UFL1 / RFU, COG3 / Fold change vs veh, COG3 / RFU, DIAPH2 / Fold change vs veh, DIAPH2 / RFU, SKA2 / Fold change vs veh, SKA2 / RFU, AFF3 / Fold change vs veh, AFF3 / RFU, LMF1 / Fold change vs veh, LMF1 / RFU, IPO11 / Fold change vs veh, IPO11 / RFU, DFFB / Fold change vs veh, DFFB / RFU, FOXP1 / Fold change vs veh, FOXP1 / RFU, CARD8 / Fold change vs veh, CARD8 / RFU, STRN3 / Fold change vs veh, STRN3 / RFU, ADK / Fold change vs veh, ADK / RFU, RASSF2 / Fold change vs veh, RASSF2 / RFU, WIPF1 / Fold change vs veh, WIPF1 / RFU, LARP1B / Fold change vs veh, LARP1B / RFU, RASA1 / Fold change vs veh, RASA1 / RFU, RB1 / Fold change vs veh, RB1 / RFU, PPFIA1 / Fold change vs veh, PPFIA1 / RFU, MAT2A / Fold change vs veh, MAT2A / RFU, CCT5 / Fold change vs veh, CCT5 / RFU, WDR92 / Fold change vs veh, WDR92 / RFU, CUX1 / Fold change vs veh, CUX1 / RFU, TTC7A / Fold change vs veh, TTC7A / RFU, TMEM135 / Fold change vs veh, TMEM135 / RFU, DEPTOR / Fold change vs veh, DEPTOR / RFU, CPM / Fold change vs veh, CPM / RFU, DNAJB6 / Fold change vs veh, DNAJB6 / RFU, CACNA2D3 / Fold change vs veh, CACNA2D3 / RFU, DTX4 / Fold change vs veh, DTX4 / RFU, TFCP2 / Fold change vs veh, TFCP2 / RFU, GMCL1 /// GMCL1P1 / Fold change vs veh, GMCL1 /// GMCL1P1 / RFU, AEBP2 / Fold change vs veh, AEBP2 / RFU, SNHG1 /// SNORD22 /// SNORD25 /// SNORD26 /// SNORD27 /// SNORD28 /// SNORD29 /// SNORD31 / Fold change vs veh, SNHG1 /// SNORD22 /// SNORD25 /// SNORD26 /// SNORD27 /// SNORD28 /// SNORD29 /// SNORD31 / Fold change (Aza/veh), C12orf56 (ProbeSet 11735607_a_at) / Fold change (ACY-1035/veh), C12orf56 (ProbeSet 11735607_a_at) / Fold change (Aza/veh), FGFR1OP (ProbeSet 11751329_s_at) / Fold change (ACY-1035/veh), FGFR1OP (ProbeSet 11751329_s_at) / Fold change (Aza/veh), VPS36 (ProbeSet 11739960_a_at) / Fold change (ACY-1035/veh), VPS36 (ProbeSet 11739960_a_at) / RFU SYPL1 (11715823_x_at) / Fold change /veh SYPL1 (11715823_x_at) / RFU IGFBP7 (11715501_s_at) / Fold change /veh IGFBP7 (11715501_s_at) / RFU REEP3 (11722064_at) / Fold change /veh REEP3 (11722064_at) / RFU IGLL1 (11728026_x_at) / Fold change /veh IGLL1 (11728026_x_at): dose or concentration left out as unconfirmed
Settings: MV-4-11 cells, 48 hours

Nc1ncn([C@@H]2O[C@H](CO)[C@@H](O)[C@H]2O)c(=O)n1 [azacitidine]
Fold change /veh CDKN2B (11736163_a_at): 1.08
